The values below come from publication PMC10947119 (Angewandte Chemie (International Ed. in English), 2023).

Each structure is given as a SMILES string. Where two headings read alike, the source gives them in different places.

The test system of experiment [1] is coaD CRISPRi knockdown Mtb mutant (Mtb H37RvMA). The format is cell-based, Mycobacterium tuberculosis.
For experiment [2], the system named is coaBC CRISPRi knockdown Mtb mutant (Mtb H37RvMA). The format is cell-based, Mycobacterium tuberculosis. The note with it: highest ATc concentrations compatible with uninhibited proliferation.

As to `NNC(=O)c1ccncc1` [isoniazid, reference compound], the “Effect of ATc (coaD silencing) on susceptibility” value (from here on “Effect of ATc (coaD silencing)”) in experiment [1] is given as “did not render the coaD CRISPRi Mtb mutant more susceptible”.

As for `O=C(O)c1cnn(-c2ccccc2)c1OCCCc1c[nH]c2ccccc12` [compound 20], the “minimum inhibitory concentration, MIC” value in experiment [1] is given as “≈ 60 μM”. Besides, the “Effect of ATc (coaD silencing)” value in experiment [1] (1.6 and 0.8 ng/mL ATc) is “enhanced in an ATc concentration‐dependent manner”. Also, the “Effect of ATc (coaBC silencing) on susceptibility” value in experiment [2] is listed as “little‐to‐no effect”.

`CO[C@H]1/C=C/O[C@@]2(C)Oc3c(C)c(O)c4c(O)c(c(/C=N/N5CCN(C)CC5)c(O)c4c3C2=O)NC(=O)/C(C)=C\C=C\[C@H](C)[C@H](O)[C@@H](C)[C@@H](O)[C@@H](C)[C@H](OC(C)=O)[C@@H]1C` [rifampicin, reference compound]: the “Effect of ATc (coaD silencing)” value in experiment [1] is recorded as “did not render the coaD CRISPRi Mtb mutant more susceptible”.
